Laboratory results taken from ChEMBL document CHEMBL3217664, “Synthesis and biological evaluation of 4-chlorocolchicine derivatives as potent anticancer agents with broad effective dosage ranges” (Medchemcomm, 2012).

Legend:
Assay type in all cases: functional, cell-based
A549 = test: Cytotoxicity against human A549 cells after 96 hrs by microplate reader analysis; details: A549, 96 h
HT-29 = test: Cytotoxicity against human HT-29 cells after 96 hrs by microplate reader analysis; details: HT-29, 96 h
HCT-116 = test: Cytotoxicity against human HCT116 cells after 96 hrs by microplate reader analysis; details: HCT-116, 96 h

SMILES | IC50 (A549) [nM] | IC50 (HT-29) [nM] | IC50 (HCT-116) [nM]
COc1c(Cl)c2c(c(OC)c1OC)-c1ccc(OC)c(=O)cc1[C@@H](NC(=O)c1cc(F)c(F)c(F)c1)CC2 | 6.6 | 6.3 | 7.2
COc1c(Cl)c2c(c(OC)c1OC)-c1ccc(OC)c(=O)cc1[C@@H](NC(=O)c1ccc(N(C)C)cc1)CC2 | 169 | 148 | 150
COc1c(Cl)c2c(c(OC)c1OC)-c1ccc(OC)c(=O)cc1[C@@H](NC(=O)c1ccccc1F)CC2 | 1.7 | 1.5 | 1.6
COc1c(Cl)c2c(c(OC)c1OC)-c1ccc(OC)c(=O)cc1[C@@H](NC(=O)C1CCCCC1)CC2 | 10.4 | 7.1 | 7.2
COc1c(Cl)c2c(c(OC)c1OC)-c1ccc(OC)c(=O)cc1[C@@H](NC(=O)c1ccc(C#N)cc1)CC2 | 11.9 | 6.7 | 6.7
COc1cc(C(=O)N[C@H]2CCc3c(Cl)c(OC)c(OC)c(OC)c3-c3ccc(OC)c(=O)cc32)cc(OC)c1OC | 124 | 47.7 | 51.7
COc1c(Cl)c2c(c(OC)c1OC)-c1ccc(OC)c(=O)cc1[C@@H](NC(=O)CN(C)C)CC2 | 160 | 46 | 67
COc1c(Cl)c2c(c(OC)c1OC)-c1ccc(OC)c(=O)cc1[C@@H](NC(=O)c1ccccc1)CC2 | 4.7 | 1.6 | 1.4
COc1cc(OC)cc(C(=O)N[C@H]2CCc3c(Cl)c(OC)c(OC)c(OC)c3-c3ccc(OC)c(=O)cc32)c1 | 14.2 | 7.9 | 6.5
COc1c(Cl)c2c(c(OC)c1OC)-c1ccc(OC)c(=O)cc1[C@@H](NC(=O)CCCO)CC2 | 357 | 168 | 175
COc1c(Cl)c2c(c(OC)c1OC)-c1ccc(OC)c(=O)cc1[C@@H](NC(=O)[C@H](C)O)CC2 | 18.7 | 8.5 | 7.9
COc1c(Cl)c2c(c(OC)c1OC)-c1ccc(OC)c(=O)cc1[C@@H](NC(=O)c1ccccc1N(C)C)CC2 | 206 | 186 | 171
COc1cccc(C(=O)N[C@H]2CCc3c(Cl)c(OC)c(OC)c(OC)c3-c3ccc(OC)c(=O)cc32)c1 | 2.7 | 1.4 | 1.6
CCC(O)(CC)C(=O)N[C@H]1CCc2c(Cl)c(OC)c(OC)c(OC)c2-c2ccc(OC)c(=O)cc21 | 38 | 36.5 | 38.7
COc1c(Cl)c2c(c(OC)c1OC)-c1ccc(OC)c(=O)cc1[C@@H](NC(=O)c1cccc([N+](=O)[O-])c1)CC2 | 1.7 | 0.1 | 0.8
COc1c(Cl)c2c(c(OC)c1OC)-c1ccc(OC)c(=O)cc1[C@@H](NC(=O)CCN(C)C)CC2 | 960 | 354 | 539
CCCC(=O)N[C@H]1CCc2c(Cl)c(OC)c(OC)c(OC)c2-c2ccc(OC)c(=O)cc21 | 9.8 | 8.3 | 7.6
COc1c(Cl)c2c(c(OC)c1OC)-c1ccc(OC)c(=O)cc1[C@@H](NC(=O)c1cccc(F)c1)CC2 | 3.5 | 1.5 | 1.6
COc1c(Cl)c2c(c(OC)c1OC)-c1ccc(OC)c(=O)cc1[C@@H](NC(=O)CCCC(=O)O)CC2 | 5360 | 2250 | 3680
COc1c(Cl)c2c(c(OC)c1OC)-c1ccc(OC)c(=O)cc1[C@@H](NC(=O)CCO)CC2 | 230 | 46.1 | 48.6
COc1c(Cl)c2c(c(OC)c1OC)-c1ccc(OC)c(=O)cc1[C@@H](NC(=O)c1ccc([N+](=O)[O-])cc1)CC2 | 11.2 | 6.9 | 6.2
COc1c(Cl)c2c(c(OC)c1OC)-c1ccc(OC)c(=O)cc1[C@@H](NC(=O)c1ccc(F)cc1)CC2 | 6.7 | 2.2 | 5.5
COc1c(Cl)c2c(c(OC)c1OC)-c1ccc(OC)c(=O)cc1[C@@H](NC(=O)c1cccc(C#N)c1)CC2 | 7.4 | 1.6 | 4.1
